Reference: ChEMBL document CHEMBL1154484, “A QSAR study for the cytotoxic activities of taxoids against macrophage (MPhi)-like cells” (Eur J Med Chem, 2009)

Legend:
[1] = Cytotoxicity against mouse J774.1 cells; assay type: cell-based
[2] = Cytotoxicity against mouse J7.DEF.3 cells; assay type: cell-based

SMILES	log(1/C) [1]	log(1/C) [2]
CC(=O)O[C@H]1C(=O)[C@@]2(C)[C@H]([C@H](OC(=O)c3ccccc3)[C@]3(O)C[C@H](OC(=O)[C@H](O)[C@@H](NC(=O)c4ccco4)c4ccccc4)C(C)=C1C3(C)C)[C@]1(OC(C)=O)CO[C@@H]1C[C@@H]2O	8.3	6.7
CC(=O)O[C@H]1C(=O)[C@@]2(C)[C@H]([C@H](OC(=O)c3ccccc3)[C@]3(O)C[C@H](OC(=O)[C@H](O)[C@@H](NC(=O)c4ccc(F)cc4)c4ccccc4)C(C)=C1C3(C)C)[C@]1(OC(C)=O)CO[C@@H]1C[C@@H]2O	7.68	7.77
CC(=O)O[C@H]1C(=O)[C@@]2(C)[C@H]([C@H](OC(=O)c3ccccc3)[C@]3(O)C[C@H](OC(=O)[C@H](O)[C@@H](NC(=O)c4ccc(C)cc4)c4ccccc4)C(C)=C1C3(C)C)[C@]1(OC(C)=O)CO[C@@H]1C[C@@H]2O	7.77	7.82
CC(=O)O[C@H]1C(=O)[C@@]2(C)[C@H]([C@H](OC(=O)c3ccccc3)[C@]3(O)C[C@H](OC(=O)[C@H](O)[C@@H](NC(=O)Cc4ccccc4)c4ccccc4)C(C)=C1C3(C)C)[C@]1(OC(C)=O)CO[C@@H]1C[C@@H]2O	7.11	7.32
CC(=O)O[C@H]1C(=O)[C@@]2(C)[C@H]([C@H](OC(=O)c3ccccc3)[C@]3(O)C[C@H](OC(=O)[C@H](O)[C@@H](NC(=O)c4ccc(Cl)cc4)c4ccccc4)C(C)=C1C3(C)C)[C@]1(OC(C)=O)CO[C@@H]1C[C@@H]2O	7.52	7.59
CC(=O)O[C@H]1C(=O)[C@@]2(C)[C@H]([C@H](OC(=O)c3ccccc3)[C@]3(O)C[C@H](OC(=O)[C@H](O)[C@@H](NC(=O)c4ccc(C(C)(C)C)cc4)c4ccccc4)C(C)=C1C3(C)C)[C@]1(OC(C)=O)CO[C@@H]1C[C@@H]2O	7.62	7.6
CC(=O)O[C@H]1C(=O)[C@@]2(C)[C@H]([C@H](OC(=O)c3ccccc3)[C@]3(O)C[C@H](OC(=O)[C@H](O)[C@@H](NC(=O)c4ccc(-c5ccccc5)cc4)c4ccccc4)C(C)=C1C3(C)C)[C@]1(OC(C)=O)CO[C@@H]1C[C@@H]2O	7.31	6.85
CC(=O)O[C@H]1C(=O)[C@@]2(C)[C@H]([C@H](OC(=O)c3ccccc3)[C@]3(O)C[C@H](OC(=O)[C@H](O)[C@@H](NC(=O)c4cccc5ccccc45)c4ccccc4)C(C)=C1C3(C)C)[C@]1(OC(C)=O)CO[C@@H]1C[C@@H]2O	7.17	6.43
CC(=O)O[C@H]1C(=O)[C@@]2(C)[C@H]([C@H](OC(=O)c3ccccc3)[C@]3(O)C[C@H](OC(=O)[C@H](O)[C@@H](NC(=O)c4cccs4)c4ccccc4)C(C)=C1C3(C)C)[C@]1(OC(C)=O)CO[C@@H]1C[C@@H]2O	8.7	7.8
CC(=O)O[C@H]1C(=O)[C@@]2(C)[C@H]([C@H](OC(=O)c3ccccc3)[C@]3(O)C[C@H](OC(=O)[C@H](O)[C@@H](NC(=O)/C=C/c4ccccc4)c4ccccc4)C(C)=C1C3(C)C)[C@]1(OC(C)=O)CO[C@@H]1C[C@@H]2O	7.52	7.11
CCCc1ccc(C(=O)N[C@@H](c2ccccc2)[C@@H](O)C(=O)O[C@H]2C[C@@]3(O)[C@@H](OC(=O)c4ccccc4)[C@@H]4[C@]5(OC(C)=O)CO[C@@H]5C[C@H](O)[C@@]4(C)C(=O)[C@H](OC(C)=O)C(=C2C)C3(C)C)cc1	7.74	7.77
CCc1ccc(C(=O)N[C@@H](c2ccccc2)[C@@H](O)C(=O)O[C@H]2C[C@@]3(O)[C@@H](OC(=O)c4ccccc4)[C@@H]4[C@]5(OC(C)=O)CO[C@@H]5C[C@H](O)[C@@]4(C)C(=O)[C@H](OC(C)=O)C(=C2C)C3(C)C)cc1	7.82	7.85
COc1ccc(C(=O)N[C@@H](c2ccccc2)[C@@H](O)C(=O)O[C@H]2C[C@@]3(O)[C@@H](OC(=O)c4ccccc4)[C@@H]4[C@]5(OC(C)=O)CO[C@@H]5C[C@H](O)[C@@]4(C)C(=O)[C@H](OC(C)=O)C(=C2C)C3(C)C)cc1OC	7.21	7.24
COc1ccc(C(=O)N[C@@H](c2ccccc2)[C@@H](O)C(=O)O[C@H]2C[C@@]3(O)[C@@H](OC(=O)c4ccccc4)[C@@H]4[C@]5(OC(C)=O)CO[C@@H]5C[C@H](O)[C@@]4(C)C(=O)[C@H](OC(C)=O)C(=C2C)C3(C)C)c(OC)c1	7.12	7.08
CC(=O)O[C@H]1C(=O)[C@@]2(C)[C@H]([C@H](OC(=O)c3ccccc3)[C@]3(O)C[C@H](OC(=O)[C@H](O)[C@@H](NC(=O)c4ccc5ccccc5c4)c4ccccc4)C(C)=C1C3(C)C)[C@]1(OC(C)=O)CO[C@@H]1C[C@@H]2O	7.68	7.26
CC(=O)O[C@H]1C(=O)[C@@]2(C)[C@H]([C@H](OC(=O)c3ccccc3)[C@]3(O)C[C@H](OC(=O)[C@H](O)[C@@H](NC(=O)c4ccc(F)cc4F)c4ccccc4)C(C)=C1C3(C)C)[C@]1(OC(C)=O)CO[C@@H]1C[C@@H]2O	7.59	7.6
COc1ccc(C(=O)N[C@@H](c2ccccc2)[C@@H](O)C(=O)O[C@H]2C[C@@]3(O)[C@@H](OC(=O)c4ccccc4)[C@@H]4[C@]5(OC(C)=O)CO[C@@H]5C[C@H](O)[C@@]4(C)C(=O)[C@H](OC(C)=O)C(=C2C)C3(C)C)cc1	7.23	7.43
CC(=O)O[C@@]12CO[C@@H]1C[C@H](O)[C@@]1(C)C(=O)[C@H](O)C3=C(C)[C@@H](OC(=O)[C@H](O)[C@@H](NC(=O)OC(C)(C)C)c4ccccc4)C[C@@](O)([C@@H](OC(=O)c4ccccc4)[C@H]21)C3(C)C.O.O.O [DOCETAXEL]	8.24	8.14
CC(=O)O[C@H]1C(=O)[C@@]2(C)[C@H]([C@H](OC(=O)c3ccccc3)[C@]3(O)C[C@H](OC(=O)[C@H](O)[C@@H](NC(=O)c4ccccc4)c4ccccc4)C(C)=C1C3(C)C)[C@]1(OC(C)=O)CO[C@@H]1C[C@@H]2O [PACLITAXEL]	7.48	7.52
